Read-outs that look alike come from different tables or passages of the source.
Key:
[1] = Confocal microscopy of solutes with low internal pH vesicles; type: physicochemical; conditions: for localisation of solute encapsulated during preparation: confocal microscopy after 7 days of dialysis; for waiting time before the vesicles absorb the solute spontaneously: vesicles prepared without addition of solute
Procedure: Optionally, solute to be encapsulated can be added. If the vesicles were prepared without addition of solute in the preceding stages, they are then able to absorb certain compounds present in solution, for example Rhodamine B or Rhodamine 6G. It is sufficient to add the solute and wait about ten minutes before the vesicles absorb the solute spontaneously.
The presence of vesicles in the solution is checked by confocal microscopy after labelling with Oregon Green 488: take about 100 mg of solution, and add 20 μL of a saturated aqueous solution of Oregon Green 488, diluted 10-fold. Observation by confocal microscopy is carried out according to the usual techniques. An image of the vesicles is obtained, with the positive walls marked with the negative stain (FIG. 2). The vesicles are well separated.
The presence of vesicles in the solution and encapsulation of Rhodamine 6G is checked by confocal microscopy according to the usual techniques. […] The same observation can be carried out after labelling with Oregon Green 488: to 20 μL of solution, add 10 μL of a saturated aqueous solution of Oregon Green 488, diluted 10-fold.
After 7 days of dialysis, withdraw the solution from the cassette using a syringe and store it at room temperature.
After 20 minutes, zones with high concentration of Rhodamine 6G are observed by confocal microscopy (FIG. 14).

[2] = Permeability to anions and degree of encapsulation (dialysis, fluorescence at 522 nm); type: physicochemical; conditions: of the initial Oregon Green
Procedure: Stir at 50° C. for 72 hours.
The solution is made up to 3 mL by adding a solution of CTACl at 1.5 mM in a borate buffer solution at pH=9. The fluorescence emission at 522 nm with excitation at 502 nm is measured with a Varian Cary Eclipse fluorescence spectrometer for all the solutions prepared from each of the samples taken. The concentration of Oregon Green in each sample is proportional to the fluorescence emission to within an arbitrary factor that is not important for the measurement.
(FIG. 11). […] The ratio of the fluorescence measured from the initial solution to the fluorescence extrapolated to t=0 makes it possible to measure the degree of encapsulation. 60% of the initial Oregon Green is therefore encapsulated.

[3] = Confocal microscopy of solutes with high internal pH vesicles; type: physicochemical; conditions: Example 11 vesicles, waiting time of one minute
Procedure: The presence of vesicles in the solution is checked by confocal microscopy after adding Rhodamine 6G: take about 100 μL of solution, and add 10 μL of an aqueous solution of Rhodamine 6G at 10 μM. Observation by confocal microscopy is carried out according to the usual techniques.
The presence of vesicles in the solution is checked by confocal microscopy by adding Rhodamine 6G as described above.

## CCN(CC)c1ccc2c(-c3ccccc3C(=O)O)c3ccc(=[N+](CC)CC)cc-3oc2c1.[Cl-] [Rhodamine B, Chloride of Rhodamine B]
[1]
  localisation of solute encapsulated during preparation: exclusively encapsulated inside the vesicles, not outside
  waiting time before the vesicles absorb the solute spontaneously: about ten

## CC/N=c1\cc2oc3cc(NCC)c(C)cc3c(-c3ccccc3C(=O)OCC)c-2cc1C.Cl [Rhodamine 6G, Chloride of Rhodamine 6G]
[1]; Example 12 vesicles, after 20 minutes
  spontaneous encapsulation of solute added after dialysis: accumulated preferentially
[1]
  localisation of solute encapsulated during preparation: present inside the vesicles, and exclusively inside
  waiting time before the vesicles absorb the solute spontaneously: about ten
Initial concentration in the solution 1.5 mM
  concentration in the vesicles extrapolated to t=0: 0.50 mM
Not told
  permeability of the vesicles to Rhodamine 6G: 8.1 10^−12 cm/s
Of the initial Rhodamine 6G
  degree of encapsulation: 30%

## O=C(O)c1ccccc1-c1c2cc(F)c(=O)cc-2oc2cc(O)c(F)cc12 [Oregon Green]
[1]; Example 2 vesicles, excess of negative stain
  penetration of stain added after dialysis: does not penetrate into the vesicles
[2]
  degree of encapsulation: 60%
[3]
  spontaneous encapsulation of solute added after dialysis: spontaneous encapsulation

Source: US20110253633A1, “CATANIONIC VESICLES, PROCESS FOR PREPARING SAME AND APPLICATIONS THEREOF” (COMMISSARIAT A L'ENERGIE ATOMIQUE ET AUX ENERGIES ALT., priority 2008, published 2011)
